From paper PMC12675575, “A BRET biosensor for measuring uncompetitive engagement of PRMT5 complexes in cells” (Nature Communications, 2025)
Values joined by “and” are separate entries in the source; they are usually repeats but may differ in a detail not shown here. Equal values may be shown once.

Target: NanoLuc-PRMT5 co-expressed with WDR77 (Homo sapiens, UniProt O14744)
Experiment: Live-cell NanoBRET target engagement with BRET probe CBH-002 in HEK293 cells expressing NanoLuc-PRMT5 and unlabeled WDR77
Assay type: cell-based
Parameters: host or cells: HEK293; key to BRET, CBH-002 + DMSO / BRET, CBH-002 + GSK3326595: mBRET units = acceptor/donor BRET ratio × 1000
Details: for BRET, CBH-002 + DMSO / BRET, CBH-002 + GSK3326595: log([CBH-002]); for BRET, CBH-002 + GSK3326595: 10 µM GSK3326595
Procedure: HEK293 cells (ATCC) were cultured in DMEM (Thermo Fisher) + 10% (v/v) FBS (Seredigm), and HCT116 cells (Horizon Discovery, #PAR-034 and #R02-033) were cultured in McCoy’s 5A (Thermo Fisher) + 10% FBS, with incubation in a humidified, 37 °C/5% CO2 incubator. Cells were split 1–3 days prior to performing experiments and used at roughly 80% confluency. […] Cells were transfected according to the manufacturer’s protocol using FuGENE HD (Promega). NanoLuc fusion DNA was diluted into Transfection Carrier DNA (Promega) in Opti-MEM at a ratio of 1:9 (mass/mass), and FuGENE HD was added at a ratio of 1:3 (μg DNA:μL lipid). […] Formed complexes were combined with cells resuspended to a density of 2 × 10^5 cells/mL in Opti-MEM + 1% FBS at a ratio of 1:20 (vol:vol). […] Cells were seeded at a density of 2 × 10^5 cells/mL in Opti-MEM + 1% FBS in 100 μL (96-well). The BRET probe CBH-002 was prepared first as a 100× stock in 100% DMSO (Sigma) and then diluted to a 20× stock in NanoBRET Tracer Dilution buffer (Promega). Test compounds were prepared as 1000× stocks in 100% DMSO and diluted to 10× stocks in Opti-MEM to prepare working stocks. […] NanoBRET Complete 3x Substrate was prepared by combining Nano-Glo Substrate and Extracellular NanoLuc Inhibitor in Opti-MEM, according to the manufacturer’s protocol (Promega).
BRET ratio values were calculated by dividing the acceptor by the donor signal, and raw BRET was converted to milli-BRET (mBRET) units (mBu) by multiplying by 1000.
EC50 values were obtained by fitting the BRET probe and compound affinity curves to a sigmoidal four-parameter fit model in Graphpad Prism:1 Y=Ymin+Ymax−Ymin/1+10^LogEC50−Xh where h is the Hill Slope.
When normalized BRET was used, mBRET values were normalized using2 NormalizedBRET%=(Y−BRETmin)/BRETmax−BRETmin where y = mBRET in the presence of test compound and BRET probe, BRETmin = mBRET at the highest concentration (saturating) of test compound and BRET probe, and BRETmax = mBRET in the presence of vehicle (DMSO) and BRET probe.
Normalized concentration-response curves showing full competition were fit using a 2-parameter model:3 Y=100/1+10^LogEC50−Xh
In situations where only partial competition was observed, the normalized concentration-response curves were fit using Eq. 1 and where Ymin was constrained to >0.

Sequence of NanoLuc-PRMT5 co-expressed with WDR77 (O14744 whole entry): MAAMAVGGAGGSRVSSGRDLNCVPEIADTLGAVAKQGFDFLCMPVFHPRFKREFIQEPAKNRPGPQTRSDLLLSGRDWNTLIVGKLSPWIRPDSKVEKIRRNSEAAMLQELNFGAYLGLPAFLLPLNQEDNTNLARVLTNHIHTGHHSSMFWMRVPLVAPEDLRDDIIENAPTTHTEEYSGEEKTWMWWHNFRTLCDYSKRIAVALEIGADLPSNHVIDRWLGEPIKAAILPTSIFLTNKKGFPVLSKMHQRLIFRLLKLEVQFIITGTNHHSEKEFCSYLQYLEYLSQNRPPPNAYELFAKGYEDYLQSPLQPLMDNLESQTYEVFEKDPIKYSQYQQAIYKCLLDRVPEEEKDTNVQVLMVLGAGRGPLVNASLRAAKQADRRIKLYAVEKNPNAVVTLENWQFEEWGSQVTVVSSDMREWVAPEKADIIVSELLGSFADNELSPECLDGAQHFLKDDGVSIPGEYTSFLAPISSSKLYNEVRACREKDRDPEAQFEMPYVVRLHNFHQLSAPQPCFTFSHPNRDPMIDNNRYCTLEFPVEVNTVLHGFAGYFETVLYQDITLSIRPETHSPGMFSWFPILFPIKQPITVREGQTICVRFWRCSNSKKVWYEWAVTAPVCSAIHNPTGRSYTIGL
Sequence of NanoLuc-PRMT5 co-expressed with WDR77 (Q9BQA1 whole entry partner): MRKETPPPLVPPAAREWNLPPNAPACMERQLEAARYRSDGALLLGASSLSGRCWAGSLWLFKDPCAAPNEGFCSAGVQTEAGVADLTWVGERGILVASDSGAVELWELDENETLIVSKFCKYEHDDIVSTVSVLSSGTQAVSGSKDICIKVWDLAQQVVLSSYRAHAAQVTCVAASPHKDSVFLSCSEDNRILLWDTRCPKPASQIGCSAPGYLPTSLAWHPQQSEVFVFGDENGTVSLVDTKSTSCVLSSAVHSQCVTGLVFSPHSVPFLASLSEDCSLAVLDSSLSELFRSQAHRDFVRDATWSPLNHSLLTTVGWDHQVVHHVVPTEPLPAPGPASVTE

O=C(CCc1ccc2n1[B-](F)(F)[N+]1=C(c3ccc[nH]3)C=CC1=C2)NCCCCC(=O)N1CCC(Nc2cc(C(=O)NC[C@H](O)CN3CCc4ccccc4C3)ncn2)CC1 [CBH-002]
BRET, CBH-002 + DMSO (uM 0.00): 772.09 and 714.74 and 694.22 | BRET, CBH-002 + GSK3326595 (uM 0.00): 61.04 and 53.68 and 50.91 | BRET, CBH-002 + DMSO (uM -0.30): 762.09 and 706.06 and 687.42 | BRET, CBH-002 + GSK3326595 (uM -0.30): 39.10 and 34.12 and 31.58 | BRET, CBH-002 + DMSO (uM -0.60): 725.23 and 680.05 and 663.94 | BRET, CBH-002 + GSK3326595 (uM -0.60): 21.81 and 20.23 and 18.49 | BRET, CBH-002 + DMSO (uM -0.90): 664.14 and 629.71 and 617.88 | BRET, CBH-002 + GSK3326595 (uM -0.90): 15.32 and 14.57 and 13.57 | BRET, CBH-002 + DMSO (uM -1.20): 530.53 and 496.08 and 504.63 | BRET, CBH-002 + GSK3326595 (uM -1.20): 11.35 and 11.22 and 10.54 | BRET, CBH-002 + DMSO (uM -1.51): 359.70 and 340.31 and 361.19 | BRET, CBH-002 + GSK3326595 (uM -1.51): 9.43 and 9.45 and 8.97 | BRET, CBH-002 + DMSO (uM -1.81): 238.28 and 223.48 and 233.43 | BRET, CBH-002 + GSK3326595 (uM -1.81): 8.65 and 8.75 and 8.42 | BRET, CBH-002 + DMSO (uM -2.11): 126.25 and 118.03 and 125.67 | BRET, CBH-002 + GSK3326595 (uM -2.11): 8.17 and 8.22 and 7.93 | BRET, CBH-002 + DMSO (uM -2.41): 70.04 and 65.87 and 70.86 | BRET, CBH-002 + GSK3326595 (uM -2.41): 7.94 and 8.15 and 7.70 | BRET, CBH-002 + DMSO (uM -2.71): 39.89 and 37.62 and 39.62 | BRET, CBH-002 + GSK3326595 (uM -2.71): 7.74 and 7.94 and 7.67 | BRET, CBH-002 + DMSO (uM -3.01): 23.90 and 22.68 and 24.07 | BRET, CBH-002 + GSK3326595 (uM -3.01): 7.80 and 7.76 and 7.50 | EC50 (probe titration against 10 µM GSK3326595 or DMSO, live HEK293, WDR77 co-expression, read-out: CBH-002 apparent affinity (EC50)): 33 nM
